From the supplement of paper PMC10307832

Columns and labels:
Assay in all cases: relative viability (nuclei count vs DMSO), 5 days (fraction); higher = more cells survive
[1] = compound: Cc1ccc2nc(NCCN)c3ncc(C)n3c2c1 + O=C(CCCCCCC(=O)Nc1ccccc1)NO [Vorinostat] (partner 1 µM)
Procedure, shortened: (§1)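 Values are medians from duplicate plates. Each reflects relative viability, defined as the nuclei count of treated wells over that of vehicle wells. Lung cancer cell lines in 1536-well plates were pin-tool dosed one day after seeding with one drug alone or with a fixed anchor-drug dose plus five library-drug doses (not always all listed) in √10 steps, then fixed, stained and imaged at 4× after 5 days.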

Salubrinal + Dasatinib = compound: O=C(/C=C/c1ccccc1)NC(NC(=S)Nc1cccc2cccnc12)C(Cl)(Cl)Cl [Salubrinal] + Cc1nc(Nc2ncc(C(=O)Nc3c(C)cccc3Cl)s2)cc(N2CCN(CCO)CC2)n1 [Dasatinib] (partner 0.075 µM)
Procedure, shortened: as §1

Salubrinal + Decitabine = compound: O=C(/C=C/c1ccccc1)NC(NC(=S)Nc1cccc2cccnc12)C(Cl)(Cl)Cl [Salubrinal] + Nc1ncn([C@H]2C[C@H](O)[C@@H](CO)O2)c(=O)n1 [Decitabine] (partner 2 µM)
Procedure, shortened: as §1

Salubrinal + Vorinostat = compound: O=C(/C=C/c1ccccc1)NC(NC(=S)Nc1cccc2cccnc12)C(Cl)(Cl)Cl [Salubrinal] + O=C(CCCCCCC(=O)Nc1ccccc1)NO [Vorinostat] (partner 1 µM)
Procedure, shortened: as §1

Cell Line	relative viability ([1]; first compound 0.04 µM)	relative viability ([1]; first compound 0.1265 µM)	relative viability ([1]; first compound 0.4 µM)	relative viability ([1]; first compound 1.265 µM)	relative viability ([1]; first compound 4 µM)	relative viability (Salubrinal + Dasatinib; first compound 0.08 µM)	relative viability (Salubrinal + Dasatinib; first compound 0.253 µM)	relative viability (Salubrinal + Dasatinib; first compound 0.8 µM)	relative viability (Salubrinal + Dasatinib; first compound 2.53 µM)	relative viability (Salubrinal + Dasatinib; first compound 8 µM)	relative viability (Salubrinal + Decitabine; first compound 0.08 µM)	relative viability (Salubrinal + Decitabine; first compound 0.253 µM)	relative viability (Salubrinal + Decitabine; first compound 0.8 µM)	relative viability (Salubrinal + Decitabine; first compound 2.53 µM)	relative viability (Salubrinal + Decitabine; first compound 8 µM)	relative viability (Salubrinal + Vorinostat; first compound 0.08 µM)	relative viability (Salubrinal + Vorinostat; first compound 0.253 µM)	relative viability (Salubrinal + Vorinostat; first compound 0.8 µM)	relative viability (Salubrinal + Vorinostat; first compound 2.53 µM)	relative viability (Salubrinal + Vorinostat; first compound 8 µM)
NCI-H1755	0.806	0.899	0.728	0.696	0.857	0.443	0.444	0.45	0.426	0.344	0.759	0.686	0.744	0.725	0.68	0.815	0.831	0.973	0.911	0.745
NCI-H1793	0.825	0.792	0.815	0.642	0.679	0.448	0.421	0.359	0.385	0.398	0.625	0.494	0.521	0.467	0.608	0.942	0.57	0.995	0.814	0.719
NCI-H1915	0.515	0.506	0.422	0.555	0.454	0.359	0.373	0.323	0.298	0.345	0.249	–	0.268	0.248	0.246	0.516	–	0.614	0.521	0.471
NCI-H1944	0.639	0.581	0.358	0.491	0.581	0.233	0.216	0.205	0.226	0.246	0.445	0.452	0.43	0.476	0.428	0.69	0.54	0.662	0.504	0.645
NCI-H1975	0.733	0.711	0.753	0.708	0.582	0.363	0.369	0.376	0.374	0.3	0.315	0.357	0.351	0.389	0.366	0.742	0.616	0.703	0.696	0.676
NCI-H1993	0.797	0.776	0.727	0.856	0.649	0.602	0.573	0.525	0.506	0.503	0.567	0.662	0.593	–	0.59	0.939	0.592	0.805	–	0.867
NCI-H2009	0.7	0.736	0.72	0.709	0.617	0.288	0.287	0.304	0.278	0.235	0.414	0.396	0.426	0.384	0.384	0.815	0.785	0.696	0.693	0.657
NCI-H2023	0.682	0.689	0.568	0.682	0.638	0.707	0.489	0.671	0.593	0.343	0.238	0.219	0.236	0.246	0.221	0.9	0.7	0.746	0.737	0.613
NCI-H2085	0.816	0.784	0.77	0.857	0.808	0.228	0.227	0.258	0.249	0.246	0.521	0.583	0.564	0.508	0.643	0.832	0.785	0.837	0.771	0.878
NCI-H2087	0.435	0.657	0.611	0.884	0.675	0.954	0.62	1.15	1.01	0.733	0.448	0.266	0.295	0.277	0.257	0.981	0.368	0.67	0.676	0.762
NCI-H2126	0.931	0.821	0.788	0.835	0.755	0.66	0.554	0.62	0.592	0.46	0.605	0.547	0.589	0.563	0.559	0.87	0.72	0.888	0.763	0.719
NCI-H2170	1.01	1.01	0.786	0.702	0.833	0.764	0.526	0.71	0.57	0.534	0.483	0.452	0.496	0.472	0.461	0.861	0.742	0.923	0.956	0.638
NCI-H2342	0.869	0.689	0.701	0.784	0.704	0.304	0.278	0.305	0.298	0.291	0.797	0.82	0.657	0.769	0.595	0.666	0.631	0.715	0.668	0.768
NCI-H2347	0.577	0.614	0.526	0.672	0.729	0.295	0.327	0.317	0.346	0.318	0.598	0.571	0.663	0.649	0.661	0.558	0.514	0.608	0.686	0.639
NCI-H2405	1.2	0.943	0.946	1.01	0.93	0.252	0.223	0.224	0.2	0.204	0.726	0.726	0.754	0.757	0.729	0.998	1.06	1.22	1.04	0.99
NCI-H3122	1.13	1.28	1.01	1.05	1.37	0.828	0.869	0.802	0.846	0.914	0.399	0.443	0.51	0.461	0.442	1.16	1	0.989	1.05	1.09
